# Measured values as given in the supplement of paper PMC10307832.
# Tests used:
# Assay in all cases: relative viability (nuclei count vs DMSO), 5 days (fraction); higher = more cells survive
# [1] = compound: Cn1cc(-c2cnn3c(N)c(Br)c([C@@H]4CCCNC4)nc23)cn1 + C[C@]1(O)C[C@@H](c2nc(-c3ccc4ccc(-c5ccccc5)nc4c3)c3c(N)nccn32)C1 [Linsitinib] (partner 1 µM)
# How it was run: (§1)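 Relative viability was taken as the ratio of nuclei in treated wells to nuclei in vehicle wells. Lung cancer cell lines in 1536-well plates received compounds by pin tool one day after seeding, either one drug alone or a fixed anchor-drug dose plus five library-drug doses (not always all listed) in √10 steps. Nuclei were counted on 4× images after 5 days of treatment, and values are medians of duplicate plates.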
# [2] = compound: Cn1cc(-c2cnn3c(N)c(Br)c([C@@H]4CCCNC4)nc23)cn1 + CC1(C)CCC(c2ccc(Cl)cc2)=C(CN2CCN(c3ccc(C(=O)NS(=O)(=O)c4ccc(N[C@H](CCN5CCOCC5)CSc5ccccc5)c(S(=O)(=O)C(F)(F)F)c4)cc3)CC2)C1 [Navitoclax] (partner 0.5 µM)
# How it was run: as §1
# [3] = compound: Cn1cc(-c2cnn3c(N)c(Br)c([C@@H]4CCCNC4)nc23)cn1 + COc1cc2c(Oc3ccc(NC(=O)C4(C(=O)Nc5ccc(F)cc5)CC4)cc3F)ccnc2cc1OCCCN1CCOCC1 [Foretinib] (partner 0.25 µM)
# How it was run: as §1
# [4] = compound: Cn1cc(-c2cnn3c(N)c(Br)c([C@@H]4CCCNC4)nc23)cn1 + CCNC(=O)c1noc(-c2cc(C(C)C)c(O)cc2O)c1-c1ccc(CN2CCOCC2)cc1 [Luminespib] (partner 0.01 µM)
# How it was run: as §1
Cell Line,relative viability ([1]; first compound 0.05 µM),relative viability ([1]; first compound 0.1581 µM),relative viability ([1]; first compound 0.5 µM),relative viability ([1]; first compound 1.581 µM),relative viability ([1]; first compound 5 µM),relative viability ([2]; first compound 0.05 µM),relative viability ([2]; first compound 0.1581 µM),relative viability ([2]; first compound 0.5 µM),relative viability ([2]; first compound 1.581 µM),relative viability ([2]; first compound 5 µM),relative viability ([3]; first compound 0.05 µM),relative viability ([3]; first compound 0.1581 µM),relative viability ([3]; first compound 0.5 µM),relative viability ([3]; first compound 1.581 µM),relative viability ([3]; first compound 5 µM),relative viability ([4]; first compound 0.05 µM),relative viability ([4]; first compound 0.1581 µM),relative viability ([4]; first compound 0.5 µM),relative viability ([4]; first compound 1.581 µM),relative viability ([4]; first compound 5 µM)
Calu-6,0.898,1.1,0.945,0.52,0.176,0.997,0.597,0.68,0.211,0.146,0.879,0.876,0.758,0.319,0.134,,,,,
ChaGo-K-1,,,,,,0.966,0.967,0.981,0.737,0.607,0.937,0.934,0.873,0.888,0.78,0.574,0.537,0.612,0.509,0.452
EKVX,1.02,1.06,0.946,0.68,0.874,0.828,1.13,0.911,0.918,0.782,0.749,0.925,0.699,0.816,0.469,0.939,0.958,0.797,0.845,0.667
EMC-BAC-2,0.834,0.904,0.849,0.663,0.836,1.26,1.25,1.14,1.01,1.43,1,1.11,1.02,0.977,0.926,1.25,1.37,1.12,0.879,1.08
EPLC-272H,1.26,1.18,1.24,1.25,1.12,1.2,1.1,1.2,0.966,0.969,0.794,0.723,0.603,0.514,0.25,0.63,0.464,0.314,0.194,0.205
H3255,0.989,1.05,0.929,0.769,0.684,0.561,0.507,0.379,0.531,0.29,0.843,0.998,0.998,0.971,0.83,0.882,0.914,1.07,0.938,0.473
HARA,1.11,1.03,1.23,0.761,0.402,1.11,1.21,1.25,1.05,0.725,1.07,1.05,0.706,0.798,0.207,0.752,0.706,0.631,0.376,0.16
HCC-15,0.98,0.997,0.824,0.838,0.829,0.803,0.792,0.635,0.626,0.669,1.09,1.09,1.05,0.941,1,0.636,0.419,0.396,0.198,0.382
HCC-44,0.685,0.872,0.821,0.65,0.631,0.94,1.05,1.23,0.916,1.18,,,,,,,0.995,1.29,0.557,0.771
